Here are results for 30 compounds from patent US10167279B2 (NOVARTIS AG, priority 2014, dated 2019).

As a reminder, the IC50 is the point on the concentration scale where inhibition reaches its midpoint. Low values mean greater potency, high ones weaker potency.

The target of the test is C-Raf FL (Homo sapiens (Human), UniProt P04049, Y340E/Y341E). Nature of the test: In vitro Raf activity determination (Alpha Screen, phospho-MEK), C-Raf FL (full length, Y340E/Y341E). The format is biochemical. The following applies: ATP 1 μM; 60 min pre-incubation; 1 hour reaction; column head does not say FL or TR. The procedure, abridged: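 Read-out is AlphaScreen luminescence using rabbit anti-p-MEK with protein A beads after EDTA stop, with IC50 fitted by non-linear regression. Reaction: Sf9-derived C-Raf plus biotinylated E. coli MEK1 K97R substrate, pH 7.5 Tris/MgCl2/DTT buffer, compound preincubated 60 min at room temperature.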
Chain of C-Raf FL (P04049 whole entry Y340E/Y341E): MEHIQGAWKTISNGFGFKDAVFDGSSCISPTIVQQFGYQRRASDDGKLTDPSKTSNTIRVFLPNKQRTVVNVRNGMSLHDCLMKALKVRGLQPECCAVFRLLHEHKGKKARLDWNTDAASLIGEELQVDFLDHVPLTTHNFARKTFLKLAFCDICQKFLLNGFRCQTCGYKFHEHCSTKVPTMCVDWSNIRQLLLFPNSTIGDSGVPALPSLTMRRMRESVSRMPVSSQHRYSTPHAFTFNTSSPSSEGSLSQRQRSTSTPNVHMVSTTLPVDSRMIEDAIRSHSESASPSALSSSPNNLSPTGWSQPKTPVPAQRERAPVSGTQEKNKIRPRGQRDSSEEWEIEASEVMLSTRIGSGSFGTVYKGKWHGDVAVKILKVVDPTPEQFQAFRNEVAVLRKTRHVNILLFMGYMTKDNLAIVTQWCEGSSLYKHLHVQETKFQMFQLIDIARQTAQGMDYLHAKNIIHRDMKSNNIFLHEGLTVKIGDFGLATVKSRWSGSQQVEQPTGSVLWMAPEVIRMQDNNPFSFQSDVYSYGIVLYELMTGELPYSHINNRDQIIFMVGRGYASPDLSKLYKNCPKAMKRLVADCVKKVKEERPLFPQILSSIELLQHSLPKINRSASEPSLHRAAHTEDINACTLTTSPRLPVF
Chain of C-Raf FL (P63104 whole entry partner): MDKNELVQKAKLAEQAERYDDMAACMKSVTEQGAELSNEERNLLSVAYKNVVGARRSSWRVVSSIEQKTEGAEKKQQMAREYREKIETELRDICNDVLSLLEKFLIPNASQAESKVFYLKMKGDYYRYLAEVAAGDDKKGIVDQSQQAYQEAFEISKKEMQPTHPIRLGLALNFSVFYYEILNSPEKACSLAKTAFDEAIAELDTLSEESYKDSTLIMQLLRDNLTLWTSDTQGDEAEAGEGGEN
In turn, `Cc1ccc(NC(=O)c2ccnc(C(F)(F)F)c2)cc1-c1cc(C2(O)COC2)cc(C2(F)COC2)c1` [Example 135, N-(3′-(3-fluorooxetan-3-yl)-5′-(3-hydroxyoxetan-3-yl)-6-methyl-[1,1′-biphenyl]-3-yl)-2-(trifluoromethyl)isonicotin-amide] showed an IC50 of 0.605 nM. In other words, the sub-nanomolar range.

In the case of `Cc1ccc(NC(=O)c2cc(C(F)(F)F)ncn2)cc1-c1cc(OCCO)nc(C2CCOCC2)c1` [Example 260, N-(3-(2-(2-hydroxyethoxy)-6-(tetrahydro-2H-pyran-4-yl)pyridin-4-yl)-4-methylphenyl)-6-(trifluoromethyl) pyrimidine-4-carboxamide], the IC50 came out at 0.08 nM.

Compound `COC1(c2cc(-c3cc(NC(=O)c4ccnc(C(F)(F)F)c4)ccc3C)cnc2OCCO)COC1` [Example 59, N-(3-(6-(2-hydroxyethoxy)-5-(3-methoxyoxetan-3-yl)pyridin-3-yl)-4-methylphenyl)-2-(trifluoromethyl)isonicotin-amide] yielded an IC50 of 0.103 nM. The IC50 values of the last two compounds are within 1.5-fold of each other.

Compound `CCOc1nnc(-c2cc(NC(=O)c3ccnc(C(C)(C)F)c3)cnc2C)cc1C1CCOCC1` [Example 233, N-(5-(6-ethoxy-5-(tetrahydro-2H-pyran-4-yl)pyridazin-3-yl)-6-methylpyridin-3-yl)-2-(2-fluoropropan-2-yl) isonicotinamide] registered an IC50 of 2 nM. Against the preceding compound, the IC50 is about 19-fold higher.

As to `Cc1ccc(NC(=O)c2ccnc(C(F)(F)CF)c2)cc1-c1cc(OC[C@H](O)CO)nc(C2CCOCC2)c1` [Example 273, (R)-N-(3-(2-(2,3-dihydroxypropoxy)-6-(tetrahydro-2H-pyran-4-yl)pyridin-4-yl)-4-methylphenyl)-2-(1,1,2-trifluoroethyl) isonicotinamide], the IC50 was found to be 0.01 nM. This IC50 is about 200-fold lower than that of the compound before.

On to `COC1(c2cc(-c3cc(NC(=O)c4ccnc(C(F)F)c4)ccc3C)cc(OCCO)n2)COC1` [Example 158, 2-(difluoromethyl)-N-(3-(2-(2-hydroxyethoxy)-6-(3-methoxyoxetan-3-yl)pyridin-4-yl)-4-methylphenyl)isonicotin-amide], for which the IC50 is 0.4 nM. This IC50 lies about 40-fold higher than the previous one.

`Cc1ncc(NC(=O)c2cccc(C(F)(F)F)c2)cc1-c1cc(NCCO)nc(C2(O)CCOCC2)c1` [Example 302, N-(2′-((2-hydroxyethyl)amino)-6′-(4-hydroxytetrahydro-2H-pyran-4-yl)-2-methyl-[3,4′-bipyridin]-5-yl)-3-(trifluoromethyl) benzamide] displayed an IC50 of 1.53 nM.

As to `Cc1ncc(NC(=O)c2cccc(C(F)(F)F)c2)cc1-c1cc(NCCO)nc(C2CCOCC2)c1` [Example 180, N-(2′-((2-hydroxyethyl)amino)-2-methyl-6′-(tetrahydro-2H-pyran-4-yl)-[3,4′-bipyridin]-5-yl)-3-(trifluoromethyl) benzamide], inhibition was half-maximal at 0.297 nM (IC50).

In turn, `Cc1ccc(NC(=O)c2cc(C(F)(F)F)ccn2)cc1-c1cc(OCCO)nc(C2CCOCC2O)c1` (stereo not drawn) [Example 247] came in with an IC50 of 0.4 nM.

Consider `Cc1ccc(NC(=O)c2cccc(C(F)(F)F)c2)cc1-c1cc(NCCO)nc(C2(O)COC2)c1` [Example 300, N-(3-(2-((2-hydroxyethyl)amino)-6-(3-hydroxyoxetan-3-yl)pyridin-4-yl)-4-methylphenyl)-3-(trifluoromethyl) benzamide], for which it took 0.1 nM to reach half-maximal inhibition (IC50).

Compound `COc1ncc(-c2cc(C(=O)Nc3cc(C(C)(C)N)cc(C(F)(F)F)c3)ccc2C)cc1C1(O)COC1` [Example 150, N-(3-(2-aminopropan-2-yl)-5-(trifluoromethyl)phenyl)-3-(5-(3-hydroxyoxetan-3-yl)-6-methoxypyridin-3-yl)-4-methylbenzamide] returned an IC50 of 3 nM.

As to `Cc1ccc(NC(=O)c2ccnc(C(C)(F)F)c2)cc1-c1cc(OCCO)nc(C2CCOCC2)c1` [Example 269, 2-(1,1-difluoroethyl)-N-(3-(2-(2-hydroxyethoxy)-6-(tetrahydro-2H-pyran-4-yl)pyridin-4-yl)-4-methylphenyl) isonicotinamide], the IC50 was determined as 0.03 nM.

In the case of `Cc1ccc(NC(=O)c2ccnc(C(F)(F)F)c2)cc1-c1cc2c(c(C3CCOCC3)c1)NC(=O)C(C)(CO)O2` (stereo not drawn) [Example 242, N-(3-(2-(hydroxymethyl)-2-methyl-3-oxo-5-(tetrahydro-2H-pyran-4-yl)-3,4-dihydro-2H-benzo[b][1,4]oxazin-7-yl)-4-methylphenyl)-2-(trifluoromethyl) isonicotinamide], the IC50 stood at 0.1 nM.

The compound `Cc1ccc(NC(=O)c2ccnc(C(C)(F)F)c2)cc1-c1cc(C2(O)COC2)cc(C2(F)COC2)c1` [Example 136, 2-(1,1-difluoroethyl)-N-(3′-(3-fluorooxetan-3-yl)-5′-(3-hydroxyoxetan-3-yl)-6-methyl-[1,1′-biphenyl]-3-yl)isonicotinamide] displayed an IC50 of 0.177 nM.

Regarding `Cc1ccc(NC(=O)c2ccnc(C(F)F)c2)cc1-c1cc(OCCO)nc(C2(CF)COC2)c1` [Example 55, 2-(difluoromethyl)-N-(3-(2-(3-(fluoromethyl)oxetan-3-yl)-6-(2-hydroxyethoxy)pyridin-4-yl)-4-methylphenyl)isonicotin-amide], the midpoint of inhibition, the IC50, lay at 0.0747 nM.

The compound `Cc1ccc(NC(=O)c2ccnc(C(F)(F)F)c2)cc1-c1cc(C2CCOCC2)nc(N(CCO)CCO)c1` [Example 176] registered an IC50 of 0.684 nM.

For `Cc1ccc(NC(=O)c2ccnc(C(C)(C)F)c2)cc1-c1cnc(OCCO)c(C2(F)COC2)c1` [Example 41, N-(3-(5-(3-fluorooxetan-3-yl)-6-(2-hydroxyethoxy)pyridin-3-yl)-4-methylphenyl)-2-(2-fluoropropan-2-yl)isonicotinamide], inhibition was half-maximal at 0.245 nM (IC50).

In turn, `Cc1ccc(NC(=O)c2ccnc(C(C)(F)F)c2)cc1-c1cc(OCCO)nc(C2(CO)CCOCC2)c1` [Example 216, 2-(1,1-difluoroethyl)-N-(3-(2-(2-hydroxyethoxy)-6-(4-(hydroxymethyl)tetrahydro-2H-pyran-4-yl)pyridin-4-yl)-4-methylphenyl) isonicotinamide] showed a 50% inhibitory concentration (IC50) of 0.2 nM.

On to `CCOc1ncc(-c2cc(NC(=O)c3cccc(C(F)(F)F)c3)cnc2C)cc1C1(F)CCOC1` (stereo not drawn) [Example 297, N-(6′-ethoxy-5′-(3-fluorotetrahydro-furan-3-yl)-2-methyl-[3,3′-bipyridin]-5-yl)-3-(trifluoro-methyl)benzamide], for which the IC50 came to 1 nM. Compared with the last compound, the IC50 is about 5-fold higher.

`Cc1ccc(NC(=O)c2ccnc(C(C)(F)F)c2)cc1-c1cc(OCCO)nc(C2(C)CCOCC2)c1` [Example 206, 2-(1,1-difluoroethyl)-N-(3-(2-(2-hydroxyethoxy)-6-(4-methyltetrahydro-2H-pyran-4-yl)pyridin-4-yl)-4-methylphenyl) isonicotinamide] yielded an IC50 of 0.4 nM. This IC50 lies about 2.5-fold lower than the previous one.

On to `Cc1ccc(NC(=O)c2ccnc(C#N)c2)cc1-c1cc(OC[C@H](O)CO)nc(C2CCOCC2)c1` [Example 279, (R)-2-cyano-N-(3-(2-(2,3-dihydroxypropoxy)-6-(tetrahydro-2H-pyran-4-yl)pyridin-4-yl)-4-methylphenyl) isonicotinamide], for which the IC50 was 0.07 nM.

As for `CCOc1nnc(-c2cc(NC(=O)c3cc(C(F)(F)F)cnn3)ccc2C)cc1C1CCOCC1` [Example 240, N-(3-(6-ethoxy-5-(tetrahydro-2H-pyran-4-yl)pyridazin-3-yl)-4-methylphenyl)-5-(trifluoromethyl) pyridazine-3-carboxamide], the IC50 worked out at 0.04 nM.

`Cc1ncc(NC(=O)c2ccnc(C(C)(C)F)c2)cc1-c1cc(C2(F)COC2)cc(OCCO)n1` [Example 48] returned an IC50 of 7.53 nM.

`Cc1ccc(NC(=O)c2ccnc(C(F)(F)F)c2)cc1-c1cc2c(c(C3CCOCC3)c1)OC(C)(C)C(=O)N2` [Example 196, N-(3-(2,2-dimethyl-3-oxo-8-(tetrahydro-2H-pyran-4-yl)-3,4-dihydro-2H-benzo[b][1,4]oxazin-6-yl)-4-methylphenyl)-2-(trifluoromethyl) isonicotinamide] yielded an IC50 of 0.4 nM.

Regarding `Cc1ncc(NC(=O)c2ccnc(C(F)(F)F)c2)cc1-c1cc(NCCO)nc(C2CCOCC2)c1` [Example 181, N-(2′-((2-hydroxyethyl)amino)-2-methyl-6′-(tetrahydro-2H-pyran-4-yl)-[3,4′-bipyridin]-5-yl)-2-(trifluoromethyl) isonicotinamide], the IC50 was determined as 0.393 nM.

In the case of `COC1(c2cc(-c3cc(NC(=O)c4cccc(C(F)(F)F)c4)cnc3C)cc(NCCO)n2)COC1` [Example 152, N-(2′-((2-hydroxyethyl)amino)-6′-(3-methoxyoxetan-3-yl)-2-methyl-[3,4′-bipyridin]-5-yl)-3-(trifluoromethyl)benzamide], the IC50 was determined as 0.08 nM.

`Cc1ccc(NC(=O)c2cc(C(F)(F)F)cnn2)cc1-c1cc2c(c(C3CCOCC3)c1)NC(=O)C(C)(CO)O2` (stereo not drawn) [Example 195, N-(3-(2-(hydroxymethyl)-2-methyl-3-oxo-5-(tetrahydro-2H-pyran-4-yl)-3,4-dihydro-2H-benzo [b][1,4]oxazin-7-yl)-4-methylphenyl)-5-(trifluoromethyl) pyridazine-3-carboxamide] had a half-maximal inhibitory concentration (IC50) of 0.03 nM.

The compound `CCOc1ncc(-c2cc(NC(=O)c3cccc(C(F)(F)F)c3)cnc2C)cc1C1(C#N)CCOC1` (stereo not drawn) [Example 171, N-(5′-(3-cyanotetrahydrofuran-3-yl)-6′-ethoxy-2-methyl-[3,3′-bipyridin]-5-yl)-3-(trifluoromethyl) benzamide] returned an IC50 of 1 nM.

`Cc1ccc(NC(=O)c2cncc(C(F)(F)F)c2)cc1-c1cc(OC[C@H](O)CO)nc(C2CCOCC2)c1` [Example 281, (R)-N-(3-(2-(2,3-dihydroxypropoxy)-6-(tetrahydro-2H-pyran-4-yl)pyridin-4-yl)-4-methylphenyl)-5-(trifluoromethyl) nicotinamide] gave an IC50 of 0.05 nM.

`COc1ncc(-c2cc(C(=O)Nc3cccc(C(F)F)c3)ccc2C)cc1C1(O)COC1` [Example 18, N-(3-(difluoromethyl)phenyl)-3-(5-(3-hydroxyoxetan-3-yl)-6-methoxypyridin-3-yl)-4-methylbenzamide] showed an IC50 of 0.6 nM.
